The record followed here is patent US8426408B2, “Pyrimidine inhibitors of kinases” (AbbVie Inc., priority 2009, dated 2013).

A value given as a limit tells only on which side of the number the result lay.

The test system of one experiment is NCI-H1299 cells. Kind of experiment: Induction of polyploidy in H1299. The experiment is classed as cell-based, Human. As to conditions: NCI-H1299, 48 hours. The procedure:
To determine the induction of polyploidy in H1299 cells, NCI-H1299 were seeded (4K/well) into 96-well culture plates (tissue culture grade, black, flat-clear bottom) and incubated overnight to produce cell-to-plate adherence. Inhibitors at varying concentrations were added into duplicate wells containing cells and culture media (RPMI 1640, 10% fetal calf serum) and incubated at 37 C for 48 hours. The plates were then washed with PBS and the adherent cells fixed by incubating with 3% formalin for 1 hour. After washing four times with PBS, the cells were then stained with Hoechst and subjected to fluorescent (360 i/460e) microscopic high content analysis to determine the effect of inhibitors on nuclear size. Polyploid cells (≧4N) were defined as those having nuclear area>750μ^2. Potency was expressed as the concentration of inhibitor necessary to induce polyploidy in 15% of cells (EC15) and was calculated from least squares analysis of the log dose-response.

The target in the next experiment is T1, Aurora B (Homo sapiens, UniProt Q96GD4).
T1 construct: Active Aurora B enzyme (recombinant residues 1-344)
Put plainly: Aurora B enzyme inhibition (time-resolved fluorescence, histone H3 peptide). The format is biochemical. As to conditions: 1 mM ATP. Put shortly:
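Recombinant Aurora B (residues 1-344) with GST-INCENP phosphorylated biotinylated histone H3 (1-21) peptide at 1 mM ATP in HEPES pH 7.4 with MgCl2, orthovanadate and Triton X-100 for 1 h. After EDTA stop, the phosphopeptide was detected by TR-FRET (Eu-cryptate anti-phospho-H3 / SA-APC, 665/615 nm ratio). IC50 from an exponential fit.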

Experiment [1] addresses T2, KDR (Homo sapiens, UniProt P35968). Put plainly: KDR HTRF in vitro kinase assay. Particulars: 1 mM ATP; read-out: KDR enzyme inhibition data (Ki). Further details: purified enzyme (His6-KDR 789-1354, MW 63 kD); His6 (N). The experiment is classed as biochemical. Put shortly: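 His6-KDR 789-1354 (7 ng/well) with 0.5 μM biotinylated peptide substrate and 1 mM ATP in HEPES pH 7.1, MgCl2/MnCl2, 60 min at room temperature. EDTA-quenched, detected by streptavidin-XL-665 plus Eu-kryptate anti-phosphotyrosine HTRF after 3 h; IC50 from 620/665 nm ratio.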
Target sequence in this assay (P35968 789-1354): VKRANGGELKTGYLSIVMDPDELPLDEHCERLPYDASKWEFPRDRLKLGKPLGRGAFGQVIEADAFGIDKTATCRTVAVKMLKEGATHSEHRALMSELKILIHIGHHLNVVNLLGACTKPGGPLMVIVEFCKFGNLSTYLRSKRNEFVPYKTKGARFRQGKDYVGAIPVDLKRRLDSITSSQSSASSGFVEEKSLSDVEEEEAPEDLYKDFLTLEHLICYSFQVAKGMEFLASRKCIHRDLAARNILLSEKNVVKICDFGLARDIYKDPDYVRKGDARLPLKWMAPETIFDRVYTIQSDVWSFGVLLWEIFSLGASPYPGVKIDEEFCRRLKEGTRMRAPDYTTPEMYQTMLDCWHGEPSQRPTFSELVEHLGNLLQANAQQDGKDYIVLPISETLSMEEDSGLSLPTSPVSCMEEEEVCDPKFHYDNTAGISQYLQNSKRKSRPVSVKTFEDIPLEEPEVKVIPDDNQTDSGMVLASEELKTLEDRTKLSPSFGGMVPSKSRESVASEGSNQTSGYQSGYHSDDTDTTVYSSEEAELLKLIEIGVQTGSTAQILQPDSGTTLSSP
In general terms: TR-FRET usually uses a lanthanide donor and a delayed reading to cut background.

Another experiment deals with T3, Aurora A (Homo sapiens, UniProt O14965).
T3 sequence (O14965 1-403): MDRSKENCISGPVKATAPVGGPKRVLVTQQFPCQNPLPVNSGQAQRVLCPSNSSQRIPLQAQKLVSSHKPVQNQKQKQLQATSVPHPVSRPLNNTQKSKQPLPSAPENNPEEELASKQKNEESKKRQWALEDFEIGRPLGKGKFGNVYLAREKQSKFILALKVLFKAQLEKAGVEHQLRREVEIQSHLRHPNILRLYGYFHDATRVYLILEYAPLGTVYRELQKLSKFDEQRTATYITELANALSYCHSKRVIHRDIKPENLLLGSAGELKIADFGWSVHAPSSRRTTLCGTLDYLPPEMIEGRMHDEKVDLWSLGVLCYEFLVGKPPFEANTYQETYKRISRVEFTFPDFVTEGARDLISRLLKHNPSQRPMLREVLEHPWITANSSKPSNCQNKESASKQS
Kind of experiment: Aurora A enzyme inhibition (time-resolved fluorescence, STK substrate-2). Particulars: 1 mM ATP. The format is biochemical. Put shortly: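 Active enzyme incubated 1 h with biotinylated STK substrate-2, 1 mM ATP and inhibitor in Hepes pH 7.4 with MgCl2, orthovanadate and Triton X-100. EDTA stop; phosphopeptide detected by Eu-cryptate anti-phospho-STK/SA-XL665 TR-FRET (665/615 nm ratio); IC50 by exponential fit.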

In experiment [2] the target is T2, KDR. Put plainly: KDR cellular assay (KDR receptor phosphorylation ELISA). The experiment is classed as cell-based. Also noted: expressed in transfected cells; host or cells: 3T3 (embryonic mouse) cells. Particulars: KDR transfected 3T3 (embryonic mouse) cells, VEGF stimulated; read-out: IC50 inhibition of KDR phosphorylation. Put shortly: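 KDR-transfected mouse 3T3 cells treated 20 min at 37° C with half-log compound dilutions, then stimulated 10 min with VEGF (100 ng/ml solution). Lysates captured on anti-KDR plates; phosphorylation by biotin antibody/streptavidin-HRP ELISA at 450 nm. IC50 by non-linear regression.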
Target sequence in this assay (P35968 20-1356): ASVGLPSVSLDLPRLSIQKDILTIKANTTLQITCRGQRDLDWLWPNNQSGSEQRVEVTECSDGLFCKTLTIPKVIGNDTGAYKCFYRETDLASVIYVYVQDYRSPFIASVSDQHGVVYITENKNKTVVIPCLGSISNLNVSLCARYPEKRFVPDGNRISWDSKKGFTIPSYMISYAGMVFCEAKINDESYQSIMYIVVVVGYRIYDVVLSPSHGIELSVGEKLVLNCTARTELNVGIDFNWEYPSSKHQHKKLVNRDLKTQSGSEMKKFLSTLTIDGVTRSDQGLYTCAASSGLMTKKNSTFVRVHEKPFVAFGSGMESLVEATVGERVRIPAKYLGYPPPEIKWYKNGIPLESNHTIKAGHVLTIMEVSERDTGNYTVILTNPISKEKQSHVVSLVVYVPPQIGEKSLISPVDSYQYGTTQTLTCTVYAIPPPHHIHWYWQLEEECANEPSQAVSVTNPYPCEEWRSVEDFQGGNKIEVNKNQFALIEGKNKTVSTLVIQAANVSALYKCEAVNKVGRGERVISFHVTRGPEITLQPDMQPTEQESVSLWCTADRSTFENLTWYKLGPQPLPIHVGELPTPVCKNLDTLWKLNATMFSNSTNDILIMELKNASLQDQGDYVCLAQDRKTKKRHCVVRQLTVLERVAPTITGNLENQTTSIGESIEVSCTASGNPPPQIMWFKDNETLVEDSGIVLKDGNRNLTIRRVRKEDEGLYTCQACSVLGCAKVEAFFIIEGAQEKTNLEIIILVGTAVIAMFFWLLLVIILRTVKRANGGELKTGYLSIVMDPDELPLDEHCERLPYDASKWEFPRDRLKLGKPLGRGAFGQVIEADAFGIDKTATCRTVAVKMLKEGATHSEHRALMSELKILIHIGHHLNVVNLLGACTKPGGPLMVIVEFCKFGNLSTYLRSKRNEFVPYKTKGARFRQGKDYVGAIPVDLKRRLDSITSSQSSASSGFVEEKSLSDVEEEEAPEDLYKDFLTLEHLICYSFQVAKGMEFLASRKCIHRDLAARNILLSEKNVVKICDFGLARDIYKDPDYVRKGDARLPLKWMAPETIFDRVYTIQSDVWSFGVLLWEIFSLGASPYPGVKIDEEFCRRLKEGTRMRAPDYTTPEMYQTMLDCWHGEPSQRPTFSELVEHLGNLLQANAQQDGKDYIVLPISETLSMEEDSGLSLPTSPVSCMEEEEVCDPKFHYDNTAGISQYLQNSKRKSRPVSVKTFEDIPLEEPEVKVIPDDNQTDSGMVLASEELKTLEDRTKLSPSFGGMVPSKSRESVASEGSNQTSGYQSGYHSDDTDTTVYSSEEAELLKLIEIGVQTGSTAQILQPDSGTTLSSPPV
A general note: ELISA stands for enzyme-linked immunosorbent assay.

T1 sequence (Q96GD4 whole entry, the tested form may be a part): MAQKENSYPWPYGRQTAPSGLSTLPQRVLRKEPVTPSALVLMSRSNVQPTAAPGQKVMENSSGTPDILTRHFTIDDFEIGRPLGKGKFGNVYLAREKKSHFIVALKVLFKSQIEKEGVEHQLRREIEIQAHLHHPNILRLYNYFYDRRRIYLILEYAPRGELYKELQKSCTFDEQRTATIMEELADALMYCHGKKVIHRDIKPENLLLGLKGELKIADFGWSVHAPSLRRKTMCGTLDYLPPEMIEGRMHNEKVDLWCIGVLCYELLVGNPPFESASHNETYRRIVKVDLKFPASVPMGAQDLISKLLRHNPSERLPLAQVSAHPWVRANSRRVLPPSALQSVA
T1 sequence (Q9NQS7 826-918 partner limits assumed): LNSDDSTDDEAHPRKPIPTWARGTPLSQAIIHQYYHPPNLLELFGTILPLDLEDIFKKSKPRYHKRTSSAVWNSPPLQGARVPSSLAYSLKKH

As to `Cn1cc(Nc2ncc(C(F)(F)F)c(N[C@@H]3CC=CC[C@@H]3C(N)=O)n2)cn1.Cn1cc(Nc2ncc(C(F)(F)F)c(N[C@H]3CC=CC[C@H]3C(N)=O)n2)cn1` (mixture of isomers) [Example 26, (1S,6R)-6-{[2-[(1-methyl-1H-pyrazol-4-yl)amino]-5-(trifluoromethyl)pyrimidin-4-yl]amino}cyclohex-3-ene-1-carboxamide and (1R,6S)-6-{[2-[(1-methyl-1H-pyrazol-4-yl)amino]-5-(trifluoromethyl)pyrimidin-4-yl]amino}cyclohex-3-ene-1-carboxamide], the “EC15 (concentration of inhibitor necessary to induce polyploidy in 15% of cells)” value in the experiment with NCI-H1299 cells was “A (“A” represents an EC15 of less than 0.1 μM)”. The results for the Ki on Aurora B, at KDR [1] and at Aurora A were less than 100 nM, 1000 to 5000 nM and 1000 to 5000 nM, respectively.

With `NC(=O)[C@@H]1[C@H](Nc2nc(Nc3cnn(CCO)c3)ncc2F)[C@H]2C=C[C@@H]1C2.NC(=O)[C@H]1[C@@H](Nc2nc(Nc3cnn(CCO)c3)ncc2F)[C@@H]2C=C[C@H]1C2` (mixture of isomers) [Example 11, (1S,2S,3R,4R)-3-[(5-fluoro-2-{[1-(2-hydroxyethyl)-1H-pyrazol-4-yl]amino}pyrimidin-4-yl)amino]bicyclo[2.2.1]hept-5-ene-2-carboxamide and (1R,2R,3S,4S)-3-[(5-fluoro-2-{[1-(2-hydroxyethyl)-1H-pyrazol-4-yl]amino}pyrimidin-4-yl)amino]bicyclo[2.2.1]hept-5-ene-2-carboxamide], in the experiment on NCI-H1299 cells, the “EC15 (concentration of inhibitor necessary to induce polyploidy in 15% of cells)” value is reported as “A (“A” represents an EC15 of less than 0.1 μM)”. Also, the Ki at Aurora B is less than 100 nM; on KDR [1] it was 100 to 1000 nM; on Aurora A, less than 100 nM.

Regarding `Cn1cc(Nc2nccc(NC3C4C=CC(C4)C3C(N)=O)n2)cn1` (mixture of isomers) [Example 2, (1S,2S,3R,4R)-3-({2-[(1-methyl-1H-pyrazol-4-yl)amino]pyrimidin-4-yl}amino)bicyclo[2.2.1]hept-5-ene-2-carboxamide and (1R,2R,3S,4S)-3-({2-[(1-methyl-1H-pyrazol-4-yl)amino]pyrimidin-4-yl}amino)bicyclo[2.2.1]hept-5-ene-2-carboxamide], in the experiment on NCI-H1299 cells (Homo sapiens, read-out: EC15 (concentration of inhibitor necessary to induce polyploidy in 15% of cells)), the EC15 is less than 100 nM. The figures for the Ki on Aurora B, on KDR [1] and at Aurora A were 100 to 1000 nM, more than 5000 nM and 1000 to 5000 nM, respectively.

Take `Cc1cnc(Nc2cnn(C)c2)nc1N[C@@H]1[C@H](C(N)=O)[C@H]2C=C[C@@H]1C2.Cc1cnc(Nc2cnn(C)c2)nc1N[C@H]1[C@@H](C(N)=O)[C@@H]2C=C[C@H]1C2` (mixture of isomers) [Example 17, (1S,2S,3R,4R)-3-({5-methyl-2-[(1-methyl-1H-pyrazol-4-yl)amino]pyrimidin-4-yl}amino)bicyclo[2.2.1]hept-5-ene-2-carboxamide and (1R,2R,3S,4S)-3-({5-methyl-2-[(1-methyl-1H-pyrazol-4-yl)amino]pyrimidin-4-yl}amino)bicyclo[2.2.1]hept-5-ene-2-carboxamide]: the “EC15 (concentration of inhibitor necessary to induce polyploidy in 15% of cells)” value with NCI-H1299 cells is given as “A (“A” represents an EC15 of less than 0.1 μM)”. Besides, the Ki at Aurora B is less than 100 nM; on KDR [1] it was 100 to 1000 nM; at Aurora A it was 100 to 1000 nM.

In the case of `Cn1cc(Nc2ncc(Cl)c(N[C@@H]3[C@H](C(N)=O)[C@@H]4C=C[C@H]3C4)n2)cn1.Cn1cc(Nc2ncc(Cl)c(N[C@H]3[C@@H](C(N)=O)[C@H]4C=C[C@@H]3C4)n2)cn1` (mixture of isomers) [Example 120, (1S,2R,3S,4R)-3-({5-chloro-2-[(1-methyl-1H-pyrazol-4-yl)amino]pyrimidin-4-yl}amino)bicyclo[2.2.1]hept-5-ene-2-carboxamide and (1R,2S,3R,4S)-3-({5-chloro-2-[(1-methyl-1H-pyrazol-4-yl)amino]pyrimidin-4-yl}amino)bicyclo[2.2.1]hept-5-ene-2-carboxamide], the “EC15 (concentration of inhibitor necessary to induce polyploidy in 15% of cells)” value in the experiment with NCI-H1299 cells was “B (“B” represents an EC15 of between 0.1 μM and 1 μM)”. The Ki on Aurora B, on KDR [1] and on Aurora A was less than 100 nM throughout.

Consider `Cn1cc(Nc2ncc(C(F)(F)F)c(N[C@@H]3C[C@H]4CC[C@@H]3C4)n2)cn1.Cn1cc(Nc2ncc(C(F)(F)F)c(N[C@H]3C[C@@H]4CC[C@H]3C4)n2)cn1` (mixture of isomers) [Example 23, N^4-[(1S,2S,4R)-bicyclo[2.2.1]hept-2-yl]-N^2-(1-methyl-1H-pyrazol-4-yl)-5-(trifluoromethyl)pyrimidine-2,4-diamine and N^4-[(1R,2R,4S)-bicyclo[2.2.1]hept-2-yl]-N^2-(1-methyl-1H-pyrazol-4-yl)-5-(trifluoromethyl)pyrimidine-2,4-diamine], for which the “EC15 (concentration of inhibitor necessary to induce polyploidy in 15% of cells)” value in the experiment with NCI-H1299 cells was “B (“B” represents an EC15 of between 0.1 μM and 1 μM)”. Also, the results for the inhibitory constant (Ki) at Aurora B, at KDR [1] and at Aurora A were less than 100 nM, 100 to 1000 nM and 100 to 1000 nM, respectively.

As for `Cc1nc(Nc2cnn(C)c2)nc(N[C@@H]2[C@H](C(N)=O)[C@H]3C=C[C@@H]2C3)c1Cl.Cc1nc(Nc2cnn(C)c2)nc(N[C@H]2[C@@H](C(N)=O)[C@@H]3C=C[C@H]2C3)c1Cl` (mixture of isomers) [Example 125, (1S,2S,3R,4R)-3-({5-chloro-6-methyl-2-[(1-methyl-1H-pyrazol-4-yl)amino]pyrimidin-4-yl}amino)bicyclo[2.2.1]hept-5-ene-2-carboxamide and (1R,2R,3S,4S)-3-({5-chloro-6-methyl-2-[(1-methyl-1H-pyrazol-4-yl)amino]pyrimidin-4-yl}amino)bicyclo[2.2.1]hept-5-ene-2-carboxamide], the IC50 on KDR [2] lay within 100 to 1000 nM. Also, the inhibitory constant (Ki) is less than 100 nM on Aurora B, 100 to 1000 nM on KDR [1] and 100 to 1000 nM on Aurora A.

For the compound `CC1(C)[C@H]2C[C@H](C(N)=O)[C@H](Nc3nc(Nc4cnn(CCc5ccccc5)c4)ncc3Cl)[C@@H]1C2` [Example 188, (1R,2R,3S,5R)-2-[(5-chloro-2-{[1-(2-phenylethyl)-1H-pyrazol-4-yl]amino}pyrimidin-4-yl)amino]-6,6-dimethylbicyclo[3.1.1]heptane-3-carboxamide], at KDR [2], the IC50 was 100 to 1000 nM. The Ki at Aurora B, on KDR [1] and at Aurora A was less than 100 nM each time.

For the compound `Cc1c(Nc2ncc(Cl)c(N[C@H]3[C@@H](C(N)=O)C[C@H]4C[C@@H]3C4(C)C)n2)cnn1C` [Example 184, (1R,2R,3S,5R)-2-({5-chloro-2-[(1,5-dimethyl-1H-pyrazol-4-yl)amino]pyrimidin-4-yl}amino)-6,6-dimethylbicyclo[3.1.1]heptane-3-carboxamide], the IC50 at KDR [2] fell in the range of 100 to 1000 nM. Further, the Ki at Aurora B, at KDR [1] and on Aurora A was less than 100 nM in each case.

Turning to `Cn1cc(Nc2ncc(C(N)=O)c(NC3C4C=CC(C4)C3C(N)=O)n2)cn1` (mixture of isomers) [Example 86, 4-{[(1S,2S,3R,4R)-3-carbamoylbicyclo[2.2.1]hept-5-ene-2-yl]amino}-2-[(1-methyl-1H-pyrazol-4-yl)amino]pyrimidine-5-carboxamide and 4-{[(1R,2R,3S,4S)-3-carbamoylbicyclo[2.2.1]hept-5-ene-2-yl]amino}-2-[(1-methyl-1H-pyrazol-4-yl)amino]pyrimidine-5-carboxamide], the half-inhibitory concentration (IC50) on KDR [2] lay within 100 to 1000 nM. For the same compound, the values for the Ki at Aurora B, on KDR [1] and at Aurora A were less than 100 nM, 100 to 1000 nM and less than 100 nM, respectively.

By Ki is commonly meant a measure of affinity in units of concentration, obtained from inhibition or displacement. As usually defined, the IC50 is the midpoint of a concentration-inhibition curve.
